Laboratory results: patent publication US20210024542A1 (Torcept Therapeutics, Inc., priority 2018, published 2021)

How the values were obtained:
[1] = test system: G-402; assay: OncoPanel cell proliferation assay, G-402; assay type: cell-based, human; settings: G-402, scale 0-10
Experimental: (§1) Cells were grown in RPMI 1640, 10% FBS, 2 mM L-alanyl-L-glutamine, 1 mM Na pyruvate, or a special medium. Cells were seeded into 384-well plates and incubated in a humidified atmosphere of 5% CO2 at 37° C. Compounds were added the day following cell seeding. At the same time, a time zero untreated cell plate was generated. After a 3-day incubation period, cells were fixed and stained to allow fluorescence imaging of nuclei. Compounds (1 mM stock solutions) were serially diluted in half-log steps from the highest test concentration ([…]), and assayed over 10 concentrations with a maximum assay concentration of 0.1% DMSO. Automated fluorescence microscopy was carried out using a Molecular Devices ImageXpress Micro XL high-content imager, and images were collected with a 4× objective. 16-bit TIFF images were acquired and analyzed with MetaXpress 5.1.0.41 software.
(§2) Cell proliferation was measured by the fluorescence intensity of an incorporated nuclear dye. The output is referred to as the relative cell count, where the measured nuclear intensity is transformed to percent of control (POC) using the following formula: […]
(§3) Cellular response parameters were calculated using nonlinear regression to a sigmoidal single-site dose response model:
(§4) Where y is a response measured at concentration x, A and B are the lower and upper limits of the response, C is the concentration at the response midpoint (EC50), and D is the Hill Slope (Ref. 1).
(§5) EC50 is the test compound concentration at the curve inflection point or half the effective response (parameter C of the fitted curve solution). GI50 is the concentration needed to reduce the observed growth by half (midway between the curve maximum and the time zero value). “Cell Count Activity Area” is an estimate of the integrated area above the curve (Barretina, et al. The Cancer Cell Line Encyclopedia enables predictive modelling of anticancer drug sensitivity. Nature 483: 603-607). […] In rare instances, values <0 or >10 may be observed. […] Curve-fitting, calculations, and report generation was performed using a custom data reduction engine and MathIQ based software (AIM).

[2] = test system: Hs 729; assay: OncoPanel cell proliferation assay, Hs 729; assay type: cell-based, human; settings: for Cell Count Activity Area: Hs 729, scale 0-10
Experimental: as §1, §2, §3, §4, §5

[3] = test system: Hs 852.T; assay: OncoPanel cell proliferation assay, Hs 852.T; assay type: cell-based, human; settings: for Cell Count Activity Area: scale 0-10
Experimental: as §1, §2, §3, §4, §5

[4] = test system: A101D; assay: OncoPanel cell proliferation assay, A101D; assay type: cell-based, human; settings: for Cell Count Activity Area: scale 0-10
Experimental: as §1, §2, §3, §4, §5

[5] = test system: CRO-AP2; assay: OncoPanel cell proliferation assay, CRO-AP2; assay type: cell-based, human; settings: CRO-AP2, scale 0-10
Experimental: as §1, §2, §3, §4, §5

[6] = test system: CEM-C1; assay: OncoPanel cell proliferation assay, CEM-C1; assay type: cell-based, human; settings: for Cell Count Activity Area: CEM-C1, scale 0-10; for IC50: Homo sapiens, 72 h, CEM-C1, 3-day incubation, read-out: Cell Count IC50
Experimental: as §1, §2, §3, §4, §5

[7] = test system: CML-T1; assay: OncoPanel cell proliferation assay, CML-T1; assay type: cell-based, human; settings: CML-T1, scale 0-10
Experimental: as §1, §2, §3, §4, §5

[8] = test system: MES-SA; assay: OncoPanel cell proliferation assay, MES-SA; assay type: cell-based, human; settings: for Cell Count Activity Area: scale 0-10
Experimental: as §1, §2, §3, §4, §5

[9] = test system: RL95-2; assay: OncoPanel cell proliferation assay, RL95-2; assay type: cell-based, human; settings: for Cell Count Activity Area: RL95-2, scale 0-10
Experimental: as §1, §2, §3, §4, §5

[10] = test system: SK-N-AS; assay: OncoPanel cell proliferation assay, SK-N-AS; assay type: cell-based, human; settings: for Cell Count Activity Area: scale 0-10
Experimental: as §1, §2, §3, §4, §5

[11] = test system: T24; assay: OncoPanel cell proliferation assay, T24; assay type: cell-based, human; settings: for Cell Count Activity Area: T24, scale 0-10
Experimental: as §1, §2, §3, §4, §5

[12] = test system: U-138MG; assay: OncoPanel cell proliferation assay, U-138MG; assay type: cell-based, human; settings: U-138MG; for Cell Count Activity Area: scale 0-10
Experimental: as §1, §2, §3, §4, §5

[13] = test system: PC-3; assay: OncoPanel cell proliferation assay, PC-3; settings: for Cell Count Activity Area: PC-3, scale 0-10
Experimental: (§6) Cells were seeded into 384-well plates and incubated in a humidified atmosphere of 5% CO2 at 37° C. Compounds were added the day following cell seeding. At the same time, a time zero untreated cell plate was generated. After a 3-day incubation period, cells were fixed and stained to allow fluorescence imaging of nuclei. Compounds (1 mM stock solutions) were serially diluted in half-log steps from the highest test concentration (1 micromol), and assayed over 10 concentrations with a maximum assay concentration of 0.1% DMSO. Automated fluorescence microscopy was carried out using a Molecular Devices ImageXpress Micro XL high-content imager, and images were collected with a 4× objective. 16-bit TIFF images were acquired and analyzed with MetaXpress 5.1.0.41 software.
(§7) GI50 is the concentration needed to reduce the observed growth by half (midway between the curve maximum and the time zero value). […] In rare instances, values <0 or >10 may be observed. […] Curve-fitting, calculations, and report generation was performed using a custom data reduction engine and MathIQ based software (AIM).

[14] = test system: SHP-77; assay: OncoPanel cell proliferation assay, SHP-77; settings: for Cell Count Activity Area: SHP-77, scale 0-10
Experimental: as §6, §7

[15] = test system: SK-UT-1; assay: OncoPanel cell proliferation assay, SK-UT-1; settings: for Cell Count Activity Area: SK-UT-1, scale 0-10
Experimental: as §6, §7

[16] = Homo sapiens, 72 h, 3-day incubation, read-out: Cell Count GI50
[17] = Homo sapiens, 72 h, 3-day incubation, read-out: Cell Count EC50
[18] = Homo sapiens, 72 h, 3-day incubation, read-out: Cell Count IC50

Row | Compound | Cell Count Activity Area [1] | Cell Count Activity Area [2] | Cell Count Activity Area [3] | Cell Count Activity Area [4] | Cell Count Activity Area [5] | Cell Count Activity Area [6] | IC50 [6] [nM] | Cell Count Activity Area [7] | Cell Count Activity Area [8] | Cell Count Activity Area [9] | Cell Count Activity Area [10] | Cell Count Activity Area [11] | Cell Count Activity Area [12] | Cell Count Activity Area [13] | Cell Count Activity Area [14] | Cell Count Activity Area [15] | further results
1 | CN[C@@H]1C[C@H]2O[C@@](C)([C@@H]1OC)n1c3ccccc3c3c4c(c5c6ccccc6n2c5c31)C(=O)NC4 [Staurosporine, reference compound] | 5.93 | 4.06 | 3.16 | 4.56 | 3.99 | 4.28 | 9.2 | 4.13 | 2.80 | 3.87 | 4.83 | 5.96 | 3.72 | 4.67 | 3.16 | 3.46 | GI50 [8, 16]: 13 nM; EC50 [10, 17]: 1.7 nM
2 | CO[C@H]1C[C@@H]2CC[C@@H](C)[C@@](O)(O2)C(=O)C(=O)N2CCCC[C@H]2C(=O)O[C@H]([C@H](C)C[C@@H]2CC[C@@H](O)[C@H](OC)C2)CC(=O)[C@H](C)/C=C(\C)[C@@H](O)[C@@H](OC)C(=O)[C@H](C)C[C@H](C)/C=C/C=C/C=C/1C [Rapamycin, reference compound] | 4.68 | 0.55 | 1.43 | 2.92 | 6.22 | 3.61 | > 1000 | 4.56 | 5.39 | 4.24 | 3.58 | 4.39 | 3.14 | 3.57 | 1.13 | 3.23 | EC50 ([2]; Homo sapiens, 72 h, Hs 729, 3-day incubation, read-out: Cell Count EC50): > 1000 nM; GI50 ([2]; Homo sapiens, 72 h, Hs 729, 3-day incubation, read-out: Cell Count GI50): > 1000 nM; IC50 ([2]; Homo sapiens, 72 h, Hs 729, 3-day incubation, read-out: Cell Count IC50): > 1000 nM; EC50 [3, 17]: > 1000 nM; GI50 [3, 16]: > 1000 nM; IC50 [3, 18]: > 1000 nM; IC50 [4, 18]: > 1000 nM; GI50 ([9]; Homo sapiens, 72 h, RL95-2, 3-day incubation, read-out: Cell Count GI50): 0.13 nM; IC50 ([9]; Homo sapiens, 72 h, RL95-2, 3-day incubation, read-out: Cell Count IC50): > 1000 nM; IC50 [10, 18]: > 1000 nM; IC50 ([11]; Homo sapiens, T-24, 72 h, T24, 3-day incubation, read-out: Cell Count IC50): 2.1 nM; IC50 ([12]; Homo sapiens, U138-MG, 72 h, 3-day incubation, read-out: Cell Count IC50): > 1000 nM; EC50 ([13]; Homo sapiens, PC-3, 72 h, read-out: Cell Count EC50): 0.23 nM; IC50 ([13]; Homo sapiens, PC-3, 72 h, read-out: Cell Count IC50): > 1000 nM; EC50 ([14]; Homo sapiens, SHP77, 72 h, read-out: Cell Count EC50): > 1000 nM; GI50 ([14]; Homo sapiens, SHP77, 72 h, read-out: Cell Count GI50): > 1000 nM; IC50 ([14]; Homo sapiens, SHP77, 72 h, read-out: Cell Count IC50): > 1000 nM; EC50 ([15]; Homo sapiens, SK-UT-1, 72 h, read-out: Cell Count EC50): 0.2 nM; GI50 ([15]; Homo sapiens, SK-UT-1, 72 h, read-out: Cell Count GI50): > 1000 nM; IC50 ([15]; Homo sapiens, SK-UT-1, 72 h, read-out: Cell Count IC50): > 1000 nM
